From ChEMBL document CHEMBL4340549, “Design, synthesis and biological evaluation of isochroman-4-one hybrids bearing piperazine moiety as antihypertensive agent candidates” (Bioorg Med Chem, 2019)

Columns and labels:
Rattus norvegicus [1] = experiment: Antihypertensive activity in spontaneously hypertensive rat assessed as diastolic arterial pressure at 80 mg/kg, po measured after 6 hrs by tail-cuff method (reference value: 137.54 +/- 9.2 mmHg); assay type: functional
Thoracic aorta [2] = experiment: Vasodilatory activity in Sprague-Dawley rat thoracic aorta assessed as inhibition of noradrenaline-induced contractions at 10 uM relative to untreated control; assay type: functional
Thoracic aorta [3] = experiment: Vasodilatory activity in Sprague-Dawley rat thoracic aorta assessed as inhibition of noradrenaline-induced contractions at 100 uM relative to untreated control; assay type: functional
[4] = biological target: T1, Alpha-1A adrenergic receptor (Rattus norvegicus, UniProt P43140); experiment: Antagonist activity at alpha-1a adrenergic receptor in SPF rat prostatic vas deferens assessed as inhibition of noradrenaline-induced contractions; conditions: read-out: pA2 (converted)
T1 sequence (P43140 whole entry): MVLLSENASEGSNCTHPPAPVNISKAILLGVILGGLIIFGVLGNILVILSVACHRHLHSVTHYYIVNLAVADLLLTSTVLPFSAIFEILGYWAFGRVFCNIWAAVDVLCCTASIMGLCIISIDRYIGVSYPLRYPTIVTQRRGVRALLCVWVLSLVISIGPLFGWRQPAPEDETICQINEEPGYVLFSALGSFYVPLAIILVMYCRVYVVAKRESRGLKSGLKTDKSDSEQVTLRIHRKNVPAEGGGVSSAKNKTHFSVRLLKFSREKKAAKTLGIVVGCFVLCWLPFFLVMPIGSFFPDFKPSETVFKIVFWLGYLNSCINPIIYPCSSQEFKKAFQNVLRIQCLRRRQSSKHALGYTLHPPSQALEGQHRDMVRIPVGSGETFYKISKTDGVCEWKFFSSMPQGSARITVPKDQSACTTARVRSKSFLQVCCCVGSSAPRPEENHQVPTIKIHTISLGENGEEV

Rattus norvegicus [5] = species on record: Rattus norvegicus; experiment: Ratio of pA2 for alpha-1b adrenergic receptor in SPF rat spleen to pA2 for alpha-1D adrenergic receptor in SPF rat vas thoracic aorta
Rattus norvegicus [6] = experiment: Antihypertensive activity in spontaneously hypertensive rat assessed as systolic arterial pressure at 80 mg/kg, po measured after 0 hrs by tail-cuff method (reference value: 186.10 +/- 4.55 mmHg); assay type: functional
Rattus norvegicus [7] = experiment: Antihypertensive activity in spontaneously hypertensive rat assessed as mean arterial pressure at 80 mg/kg, po measured after 1 hr by tail-cuff method (reference value: 160 +/- 9.97 mmHg); assay type: functional
Rattus norvegicus [8] = experiment: Effect on heart rate in spontaneously hypertensive rat assessed as heart rate level at 80 mg/kg, po measured after 1 hr by tail-cuff method (reference value: 415.25 +/- 14.7 bpm); assay type: ADME, organism-based; conditions: in vivo
Rattus norvegicus [9] = experiment: Antihypertensive activity in spontaneously hypertensive rat assessed as diastolic arterial pressure at 80 mg/kg, po measured after 8 hrs by tail-cuff method (reference value: 140.61 +/- 10.3 mmHg); assay type: functional
Rattus norvegicus [10] = experiment: Antihypertensive activity in spontaneously hypertensive rat assessed as reduction in mean arterial pressure at 80 mg/kg, po measured after 4 hrs by tail-cuff method; assay type: functional; parameters: scale not given: the % may be the effect or the level left

Work on `COc1cc2c(cc1OCC(O)CN1CCN(C(=O)C3CCCO3)CC1)C(=O)C(C)OC2` (stereo not given) yielded an Activity (Rattus norvegicus [1]) of 132.51 mmHg, an inhibition at 10 µM (Thoracic aorta [2]) of 41.6% and an inhibition at 100 µM (Thoracic aorta [3]) of 64%. It also gave a Kb [4] of 224 nM, a Ratio (Rattus norvegicus [5]) of 5.6 and an Activity (Rattus norvegicus [6]) of 187.64 mmHg. The Activity (Rattus norvegicus [7]) was 152.5 mmHg, the Activity (Rattus norvegicus [8]) was 409.3 bpm and the Activity (Rattus norvegicus [9]) was 141.89 mmHg. For the same compound, the Activity (Rattus norvegicus [10]) was 23.7%.
